Results reported in publication PMC5218480 (PLoS ONE, 2017).

Tested on: MV-4-11 cells
Test: Gene expression microarray analysis (Affymetrix PrimeView) and GSEA
Assay type: cell-based, human
Set-up: RFU PODN (11730768_x_at) / Fold change /veh PODN (11730768_x_at) / RFU LINC00158 (11744669_a_at) / Fold change /veh LINC00158 (11744669_a_at) / RFU DUSP10 (11751237_a_at) / Fold change /veh DUSP10 (11751237_a_at) / RFU ID3 (11757404_x_at) / Fold change /veh ID3 (11757404_x_at) / RFU PLEKHG5 (11737974_s_at) / Fold change /veh PLEKHG5 (11737974_s_at) / RFU LRRC4B (11730491_at) / Fold change /veh LRRC4B (11730491_at) / RFU GIMAP4 (11747438_a_at) / Fold change /veh GIMAP4 (11747438_a_at) / RFU KRT8 (11758183_x_at) / Fold change /veh KRT8 (11758183_x_at) / RFU CNN1 (11734310_a_at) / Fold change /veh CNN1 (11734310_a_at) / RFU VPS37D (11726825_at) / Fold change /veh VPS37D (11726825_at) / RFU C10orf10 (11716522_x_at) / Fold change /veh C10orf10 (11716522_x_at) / RFU KIR2DL2 /// KIR2DL4 /// KIR2DL5A /// KIR2DL5B /// KIR2DS1 /// KIR2DS2 /// KIR2DS3 /// KIR2DS4 /// KIR3DL3 /// KIR3DL3 /// KIR3DS1 (11738374_at) / Fold change /veh KIR2DL2 /// KIR2DL4 /// KIR2DL5A /// KIR2DL5B /// KIR2DS1 /// KIR2DS2 /// KIR2DS3 /// KIR2DS4 /// KIR3DL3 /// KIR3DL3 /// KIR3DS1 (11738374_at) / RFU C1QL1 (11718748_at) / Fold change /veh C1QL1 (11718748_at) / RFU TMPRSS4 (11747572_a_at) / Fold change /veh TMPRSS4 (11747572_a_at) / RFU HAMP (11756126_x_at) / Fold change /veh HAMP (11756126_x_at) / RFU RNFT2 (11725882_a_at) / Fold change /veh RNFT2 (11725882_a_at) / RFU NR4A2 (11747474_a_at) / Fold change /veh NR4A2 (11747474_a_at) / RFU ABCC12 (11746883_a_at) / Fold change /veh ABCC12 (11746883_a_at) / RFU TMEM136 (11760407_x_at) / Fold change /veh TMEM136 (11760407_x_at) / RFU CLDN22 /// WWC2 (11732394_at) / Fold change /veh CLDN22 /// WWC2 (11732394_at) / RFU HLA-DPB1 (11760878_x_at) / Fold change /veh HLA-DPB1 (11760878_x_at) / RFU SPINT1 (11716480_a_at) / Fold change /veh SPINT1 (11716480_a_at) / RFU GAP43 (11754022_s_at) / Fold change /veh GAP43 (11754022_s_at) / RFU A4GNT (11735810_at) / Fold change /veh A4GNT (11735810_at) / RFU PRB3 (11715151_x_at) / Fold change /veh PRB3 (11715151_x_at) / RFU TUBB4B (11761932_at) / Fold change /veh TUBB4B (11761932_at) / RFU CAPN14 (11732068_a_at) / Fold change /veh CAPN14 (11732068_a_at) / RFU TMCC2 (11721928_a_at) / Fold change /veh TMCC2 (11721928_a_at) / RFU IRGQ (11745062_a_at) / Fold change /veh IRGQ (11745062_a_at) / RFU FAM174B (11720279_a_at) / Fold change /veh FAM174B (11720279_a_at) / RFU TMPRSS4 (11748680_a_at) / Fold change /veh TMPRSS4 (11748680_a_at) / RFU FAM212B (11763350_a_at) / Fold change /veh FAM212B (11763350_a_at) / RFU PLEKHG5 (11743358_a_at) / Fold change /veh PLEKHG5 (11743358_a_at) / RFU ZSCAN30 (11745921_a_at) / Fold change /veh ZSCAN30 (11745921_a_at) / RFU CMKLR1 (11741424_a_at) / Fold change /veh CMKLR1 (11741424_a_at) / RFU LOC101060620 /// MAPK8IP1 (11723275_at) / Fold change /veh LOC101060620 /// MAPK8IP1 (11723275_at) / RFU SPTSSB (11747773_x_at) / Fold change /veh SPTSSB (11747773_x_at) / RFU PRSS12 (11739890_at) / Fold change /veh PRSS12 (11739890_at) / RFU BIN1 (11741810_x_at) / Fold change /veh BIN1 (11741810_x_at) / RFU WNT11 (11732464_a_at) / Fold change /veh WNT11 (11732464_a_at) / RFU C10orf10 (11716521_a_at) / Fold change /veh C10orf10 (11716521_a_at) / RFU C5orf56 (11738089_at) / Fold change /veh C5orf56 (11738089_at) / RFU CYB561 (11721691_x_at) / Fold change /veh CYB561 (11721691_x_at) / RFU ANKRD19P (11752326_a_at) / Fold change /veh ANKRD19P (11752326_a_at) / RFU OR2T12 /// OR2T33 /// OR2T8 (11738714_s_at) / Fold change /veh OR2T12 /// OR2T33 /// OR2T8 (11738714_s_at) / RFU VCAN (11748164_a_at) / Fold change /veh VCAN (11748164_a_at) / RFU JSRP1 (11732532_at) / Fold change /veh JSRP1 (11732532_at) / RFU KRTAP10-11 (11738290_x_at) / Fold change /veh KRTAP10-11 (11738290_x_at) / RFU MYO3A (11730013_a_at) / Fold change /veh MYO3A (11730013_a_at) / RFU EBF3 (11725865_a_at) / Fold change /veh EBF3 (11725865_a_at) / RFU CAMK2N1 (11719241_x_at) / Fold change /veh CAMK2N1 (11719241_x_at) / RFU C5orf56 (11738088_a_at) / Fold change /veh C5orf56 (11738088_a_at) / RFU OLFML3 (11715873_a_at) / Fold change /veh OLFML3 (11715873_a_at) / RFU LOC100653217 /// NTM (11731650_a_at) / Fold change /veh LOC100653217 /// NTM (11731650_a_at) / RFU MAPK11 (11762145_a_at) / Fold change /veh MAPK11 (11762145_a_at) / RFU FIZ1 (11724087_x_at) / Fold change /veh FIZ1 (11724087_x_at) / RFU OASL (11726364_x_at) / Fold change /veh OASL (11726364_x_at) / RFU SOX15 (11748057_x_at) / Fold change /veh SOX15 (11748057_x_at) / RFU CD79A (11719716_a_at) / Fold change /veh CD79A (11719716_a_at) / RFU HIST1H1D (11736915_at) / Fold change /veh HIST1H1D (11736915_at) / RFU CASKIN2 (11723855_a_at) / Fold change /veh CASKIN2 (11723855_a_at) / RFU LOC730098 (11760151_x_at) / Fold change /veh LOC730098 (11760151_x_at) / RFU OR4N2 (11742367_at) / Fold change /veh OR4N2 (11742367_at) / RFU PRRT2 (11749266_a_at) / Fold change /veh PRRT2 (11749266_a_at) / RFU SNX32 (11753110_a_at) / Fold change /veh SNX32 (11753110_a_at) / RFU CDHR5 (11726645_a_at) / Fold change /veh CDHR5 (11726645_a_at) / RFU RCAN1 (11760418_a_at) / Fold change /veh RCAN1 (11760418_a_at) / RFU FAM167A (11723789_a_at) / Fold change /veh FAM167A (11723789_a_at) / RFU FAM26E (11764081_at) / Fold change /veh FAM26E (11764081_at) / RFU ISYNA1 (11749810_s_at) / Fold change /veh ISYNA1 (11749810_s_at) / RFU ACY1 (11761880_at) / Fold change /veh ACY1 (11761880_at) / RFU 11764098_at / Fold change /veh 11764098_at / RFU SAMD14 (11745864_x_at) / Fold change /veh SAMD14 (11745864_x_at) / RFU NPB (11741838_a_at) / Fold change /veh NPB (11741838_a_at) / RFU TMPRSS6 (11731388_a_at) / Fold change /veh TMPRSS6 (11731388_a_at) / RFU KRTAP10-2 (11738614_at) / Fold change /veh KRTAP10-2 (11738614_at) / RFU ARHGAP8 /// PRR5-ARHGAP8 (11727945_x_at) / Fold change /veh ARHGAP8 /// PRR5-ARHGAP8 (11727945_x_at) / RFU KRTAP5-7 /// NADSYN1 (11734609_at) / Fold change /veh KRTAP5-7 /// NADSYN1 (11734609_at) / RFU RASL12 (11751679_a_at) / Fold change /veh RASL12 (11751679_a_at) / RFU CDKN2B (11736163_a_at) / Fold change /veh CDKN2B (11736163_a_at) / RFU PRF1 (11729649_at) / Fold change /veh PRF1 (11729649_at) / RFU, ZNF638 /// ZNF638-IT1 / Fold change vs veh, ZNF638 /// ZNF638-IT1 / RFU, PANK3 / Fold change vs veh, PANK3 / RFU, SH3YL1 / Fold change vs veh, SH3YL1 / RFU, ZEB2 / Fold change vs veh, ZEB2 / RFU, NRIP1 / Fold change vs veh, NRIP1 / RFU, PTTG1IP / Fold change vs veh, PTTG1IP / RFU, CAPN2 / Fold change vs veh, CAPN2 / RFU, MED14 / Fold change vs veh, MED14 / RFU, SNORA58 / Fold change vs veh, SNORA58 / RFU, C1orf63 / Fold change vs veh, C1orf63 / RFU, LRRFIP1 / Fold change vs veh, LRRFIP1 / RFU, NDUFAF7 / Fold change vs veh, NDUFAF7 / RFU, SLC12A2 / Fold change vs veh, SLC12A2 / RFU, IBTK / Fold change vs veh, IBTK / RFU, ESF1 / Fold change vs veh, ESF1 / Fold change vs veh, TMEM50B / RFU, TAOK1 / Fold change vs veh, TAOK1 / RFU, ACBD3 / Fold change vs veh, ACBD3 / RFU, TMA16 / Fold change vs veh, TMA16 / RFU, RWDD3 / Fold change vs veh, RWDD3 / RFU, BCAT1 / Fold change vs veh, BCAT1 / RFU, EDEM3 / Fold change vs veh, EDEM3 / RFU, TMEM33 / Fold change vs veh, TMEM33 / RFU, WDR75 / Fold change vs veh, WDR75 / RFU, AHCTF1 / Fold change vs veh, AHCTF1 / RFU, TFRC / Fold change vs veh, TFRC / RFU, ZDHHC17 / Fold change vs veh, ZDHHC17 / RFU, NOM1 / Fold change vs veh, NOM1 / RFU, ARL8B / Fold change vs veh, ARL8B / RFU, ZBTB11 / Fold change vs veh, ZBTB11 / RFU, TAMM41 / Fold change vs veh, TAMM41 / RFU, KIAA1704 /// LOC100996395 / Fold change vs veh, KIAA1704 /// LOC100996395 / RFU, ING1 / Fold change vs veh, ING1 / RFU, TRMT61B / Fold change vs veh, TRMT61B / RFU, FUBP3 / Fold change vs veh, FUBP3 / RFU, TP53 / Fold change vs veh, TP53 / RFU, TNKS2 / Fold change vs veh, TNKS2 / RFU, ZFP14 / Fold change vs veh, ZFP14 / RFU, ACTR2 / Fold change vs veh, ACTR2 / RFU, PPP3R1 / Fold change vs veh, PPP3R1 / RFU, PIK3R1 / Fold change vs veh, PIK3R1 / RFU, HNRNPA1 / Fold change vs veh, HNRNPA1 / RFU, RNF170 / Fold change vs veh, RNF170 / RFU, ZNF28 / Fold change vs veh, ZNF28 / RFU, RNGTT / Fold change vs veh, RNGTT / RFU, OGT / Fold change vs veh, OGT / RFU, BRD1 / Fold change vs veh, BRD1 / RFU, MARS / Fold change vs veh, MARS / RFU, ZNF655 / Fold change vs veh, ZNF655 / RFU, FAHD1 / Fold change vs veh, FAHD1 / RFU, BDP1 / Fold change vs veh, BDP1 / RFU, LRRCC1 / Fold change vs veh, LRRCC1 / RFU, ARID1A / Fold change vs veh, ARID1A / RFU, ZNF146 / Fold change vs veh, ZNF146 / RFU, ZNF330 / Fold change vs veh, ZNF330 / RFU, GPN3 / Fold change vs veh, GPN3 / RFU, C9orf123 / Fold change vs veh, C9orf123 / RFU, N4BP2L2 / Fold change vs veh, N4BP2L2 / RFU, ARFIP1 / Fold change vs veh, ARFIP1 / RFU, FAM179B / Fold change vs veh, FAM179B / RFU, BCL10 / Fold change vs veh, BCL10 / RFU, UHRF1BP1L / Fold change vs veh, UHRF1BP1L / RFU, BET1 / Fold change vs veh, BET1 / RFU, CNOT2 / Fold change vs veh, CNOT2 / RFU, ZNF268 / Fold change vs veh, ZNF268 / Fold change vs veh, ZNF507 / RFU, DGCR2 / Fold change vs veh, DGCR2 / RFU, WDSUB1 / Fold change vs veh, WDSUB1 / Fold change vs veh, HSP90B1 /// MIR3652 / RFU, ADSS / Fold change vs veh, ADSS / RFU, GK / Fold change vs veh, GK / RFU, ZNF148 / Fold change vs veh, ZNF148 / RFU, TAF9 / Fold change vs veh, TAF9 / RFU, SLC1A5 / Fold change vs veh, SLC1A5 / RFU, SLMO2 / Fold change vs veh, SLMO2 / RFU, ABCC4 / Fold change vs veh, ABCC4 / RFU, LOC101060439 /// RAP1B / Fold change vs veh, LOC101060439 /// RAP1B / RFU, RFX7 / Fold change vs veh, RFX7 / RFU, GTPBP10 / Fold change vs veh, GTPBP10 / RFU, CNEP1R1 / Fold change vs veh, CNEP1R1 / RFU, BIVM-ERCC5 /// ERCC5 / Fold change vs veh, BIVM-ERCC5 /// ERCC5 / RFU, ILF3 / Fold change vs veh, ILF3 / RFU 11762660_at / Fold change /veh 11762660_at / RFU VCAN (11757783_s_at) / Fold change /veh VCAN (11757783_s_at) / RFU DDX43 (11728927_at) / Fold change /veh DDX43 (11728927_at) / RFU KRT8 (11758188_x_at) / Fold change /veh KRT8 (11758188_x_at) / RFU NKD1 (11759106_at) / Fold change /veh NKD1 (11759106_at) / RFU SRD5A1 (11742802_a_at) / Fold change /veh SRD5A1 (11742802_a_at) / RFU TPSAB1 /// TPSB2 (11721975_s_at) / Fold change /veh TPSAB1 /// TPSB2 (11721975_s_at) / RFU GSTM3 (11746129_a_at) / Fold change /veh GSTM3 (11746129_a_at) / RFU IL23R (11737362_x_at) / Fold change /veh IL23R (11737362_x_at) / RFU TMEM51 (11727254_a_at) / Fold change /veh TMEM51 (11727254_a_at) / RFU PIWIL2 (11732686_x_at) / Fold change /veh PIWIL2 (11732686_x_at) / RFU ORM1 (11744905_x_at) / Fold change /veh ORM1 (11744905_x_at) / RFU CCDC152 (11743942_at) / Fold change /veh CCDC152 (11743942_at) / RFU ECM1 (11717891_a_at) / Fold change /veh ECM1 (11717891_a_at) / RFU IL23R (11748794_a_at) / Fold change /veh IL23R (11748794_a_at) / RFU TNFAIP8L3 (11732012_x_at) / Fold change /veh TNFAIP8L3 (11732012_x_at) / RFU MBOAT4 (11741988_at) / Fold change /veh MBOAT4 (11741988_at) / RFU 11764193_at / Fold change /veh 11764193_at / RFU TMEM53 (11763286_at) / Fold change /veh TMEM53 (11763286_at) / RFU MAGEB2 (11727129_at) / Fold change /veh MAGEB2 (11727129_at) / RFU TMEM200A (11744735_a_at) / Fold change /veh TMEM200A (11744735_a_at) / RFU CCDC152 (11751479_a_at) / Fold change /veh CCDC152 (11751479_a_at) / RFU FAM211A (11726209_a_at) / Fold change /veh FAM211A (11726209_a_at) / RFU RGS16 (11746705_a_at) / Fold change /veh RGS16 (11746705_a_at) / RFU VCAN (11755009_s_at) / Fold change /veh VCAN (11755009_s_at) / RFU RHOB (11743442_s_at) / Fold change /veh RHOB (11743442_s_at) / RFU RGS16 (11720943_a_at) / Fold change /veh RGS16 (11720943_a_at) / RFU RGS16 (11720944_at) / Fold change /veh RGS16 (11720944_at) / RFU, VPS4B / Fold change vs veh, VPS4B / RFU, CREB1 / Fold change vs veh, CREB1 / RFU, DNAJC13 / Fold change vs veh, DNAJC13 / RFU, GNAQ / Fold change vs veh, GNAQ / RFU, CDK5R1 / Fold change vs veh, CDK5R1 / RFU, ZRANB3 / Fold change vs veh, ZRANB3 / RFU, CUL4A / Fold change vs veh, CUL4A / RFU, CCNY / Fold change vs veh, CCNY / RFU, UFL1 / Fold change vs veh, UFL1 / RFU, COG3 / Fold change vs veh, COG3 / RFU, DIAPH2 / Fold change vs veh, DIAPH2 / RFU, SKA2 / Fold change vs veh, SKA2 / RFU, AFF3 / Fold change vs veh, AFF3 / RFU, LMF1 / Fold change vs veh, LMF1 / RFU, IPO11 / Fold change vs veh, IPO11 / RFU, DFFB / Fold change vs veh, DFFB / RFU, FOXP1 / Fold change vs veh, FOXP1 / RFU, CARD8 / Fold change vs veh, CARD8 / RFU, STRN3 / Fold change vs veh, STRN3 / RFU, ADK / Fold change vs veh, ADK / RFU, RASSF2 / Fold change vs veh, RASSF2 / RFU, WIPF1 / Fold change vs veh, WIPF1 / RFU, LARP1B / Fold change vs veh, LARP1B / RFU, RASA1 / Fold change vs veh, RASA1 / RFU, RB1 / Fold change vs veh, RB1 / RFU, PPFIA1 / Fold change vs veh, PPFIA1 / RFU, MAT2A / Fold change vs veh, MAT2A / RFU, CCT5 / Fold change vs veh, CCT5 / RFU, WDR92 / Fold change vs veh, WDR92 / RFU, CUX1 / Fold change vs veh, CUX1 / RFU, TTC7A / Fold change vs veh, TTC7A / RFU, TMEM135 / Fold change vs veh, TMEM135 / RFU, DEPTOR / Fold change vs veh, DEPTOR / RFU, CPM / Fold change vs veh, CPM / RFU, DNAJB6 / Fold change vs veh, DNAJB6 / RFU, CACNA2D3 / Fold change vs veh, CACNA2D3 / RFU, DTX4 / Fold change vs veh, DTX4 / RFU, TFCP2 / Fold change vs veh, TFCP2 / RFU, GMCL1 /// GMCL1P1 / Fold change vs veh, GMCL1 /// GMCL1P1 / RFU, AEBP2 / Fold change vs veh, AEBP2 / RFU, SNHG1 /// SNORD22 /// SNORD25 /// SNORD26 /// SNORD27 /// SNORD28 /// SNORD29 /// SNORD31 / Fold change vs veh, SNHG1 /// SNORD22 /// SNORD25 /// SNORD26 /// SNORD27 /// SNORD28 /// SNORD29 /// SNORD31 / Fold change (Aza/veh), C12orf56 (ProbeSet 11735607_a_at) / Fold change (ACY-1035/veh), C12orf56 (ProbeSet 11735607_a_at) / Fold change (Aza/veh), FGFR1OP (ProbeSet 11751329_s_at) / Fold change (ACY-1035/veh), FGFR1OP (ProbeSet 11751329_s_at) / Fold change (Aza/veh), VPS36 (ProbeSet 11739960_a_at) / Fold change (ACY-1035/veh), VPS36 (ProbeSet 11739960_a_at) / RFU SYPL1 (11715823_x_at) / Fold change /veh SYPL1 (11715823_x_at) / RFU IGFBP7 (11715501_s_at) / Fold change /veh IGFBP7 (11715501_s_at) / RFU REEP3 (11722064_at) / Fold change /veh REEP3 (11722064_at) / RFU IGLL1 (11728026_x_at) / Fold change /veh IGLL1 (11728026_x_at): dose or concentration left out as unconfirmed
Conditions: ProbeSet 11741199_a_at; LIST B

## Nc1ncn([C@@H]2O[C@H](CO)[C@@H](O)[C@H]2O)c(=O)n1 [azacitidine]
  Fold change vs veh, LRRCC1: 0.97
